Values belong to the compound of their own block, whether it stands above or below them.
Columns and labels:
[1] = target: MDR1 (P-glycoprotein) (Homo sapiens (Human), UniProt P08183); assay: Pgp Liability MDR1 Er; assay type: in vitro ADME; conditions: MDR1-transfected MDCK line, ratio of permeability Papp BA/AB
Excerpt: (§1) MDR1 Efflux Ratio (MDR Er) from MDR1-transfected MDCK line cell line represents the ratio of permeability, Papp BA/AB.

[2] = HLM CLint (clearance in human liver microsomes); assay type: in vitro ADME
[3] = system: sAPPβ in H4 human neuroglioma cells over-expressing wild-type human APP695; assay: sAPPβ Whole-Cell Assay (WCA); assay type: cell-based; conditions: 18 h
Procedure: sAPPβ Whole-Cell Assay (WCA):
sAPPβ, the primary cleavage product of BACE1, was determined in H4 human neuroglioma cells over-expressing the wild-type human APP695. […] The colorimetric reaction was read by an EnVision (PerkinElmer) plate-reader.

[4] = system: BACE2/BACE1; assay: BACE2/BACE1 Binding Ratio (scintillation proximity binding assays); parameters: species or system human; conditions: ratio of IC50 from respective binding assays, pH 6.0
Procedure: BACE2/BACE1 Binding Ratio:
The BACE1 and BACE2 binding assays measured beta-site amyloid precursor protein-cleaving enzyme (BACE) binding as a decrease in the counts of radioligand bound in a scintillation proximity assay (SPA). […] Full length human BACE1 or BACE2 over-expressed in HEK cells was prepared by Pfizer scientists. Frozen stock cell paste was reacted in 50 mM sodium acetate buffer (pH=6.0) containing 3H-(4aR,6R,8aS)-8a-(2,4-difluorophenyl)-6-(1-methyl-1H-pyrazol-4-yl)-4,4a,5,6,8,8a-hexahydropyrano[3,4-d][1,3]thiazin-2-amine ligand, SPA bead and 60 μM to 600 pM of test compound in an assay volume of 27 uL. The compound plate also contained positive (BACE inhibitor) and negative (DMSO) control wells. The binding was carried out at room temperature for 30 minutes and then the plates were read on a TriLux Microbeta reader to determine the number of counts bound.

[5] = target: CYP2D6 (Homo sapiens (Human), UniProt P10635); assay: General Multi-Point Cocktail DDI IC50 Assay (CYP2D6)
Procedure: General Multi-Point Cocktail DDI IC50 Assay Conditions:
The incubation volume is 0.1 mL, utilizing a 384-well plate format. […] Substrate concentrations are near Km values that had been previously determined and incubation times are selected based on determinations of reaction velocity linearity. […] Samples are directly injected on an HPLC/MS/MS system. A Biomek FX workstation is used for liquid handling and sample incubation.

[6] = GSH Incubation Assay; assay type: in vitro ADME; conditions: for formation of GSH adducts: following incubations; for Observed GSH adducts: glutathione (50 mM) at 37° C. in buffer for 4 hours
Procedure: The test compound (10 μM in DMSO) was incubated with L-glutathione (50 mM, prepared in 100 mM potassium phosphate buffer) at 37° C. for 4 hours and then analyzed by HPLC-UV/MS/MS without work-up. Thermo Accela HPLC and Velos Pro Orbitrap Elite (S/N: SN05189B) operating in positive mode with a source voltage of 3.5 kV with data dependant processing. […] Product assignments were based on high resolution mass spectrometer fragmentation.

[7] = system: MDR1 (P-glycoprotein); assay: Pgp Liability MDR1 Er; assay type: in vitro ADME; conditions: dog, MDCK-MDR1
Excerpt: as §1

[8] = target: BACE1 (Homo sapiens (Human), UniProt P56817); assay: BACE1 Cell-Free Assay (fluorescence polarization); assay type: biochemical; conditions: geometric mean of 2-4 determinations unless otherwise indicated (b: ≧5 determinations; c: single determination); read-out: BACE 1 Cell-free Assay IC50
Excerpt: This assay measures the inhibition of the beta-secretase enzyme as it cleaves a non-native peptide.
A synthetic APP substrate that can be cleaved by beta-secretase having N-term inal biotin and made fluorescent by the covalent attachment of Oregon Green at the Cys residue is used to assay beta-secretase activity in the presence or absence of the inhibitory compounds. The substrate is Biotin-[…]-C[Oregon Green]KK-OH. The BACE1 enzyme is affinity purified material from conditioned media of CHO-K1 cells that have been transfected with a soluble BACE construct (BACE1deltaTM96His). […] Plates are covered and incubated for 3 hours at 37° C. […] The activity of the beta-secretase enzyme is detected by changes in the fluorescence polarization that occur when the substrate is cleaved by the enzyme.

Chain of MDR1 (P-glycoprotein) (Homo sapiens (Human), UniProt P08183) (P08183 whole entry): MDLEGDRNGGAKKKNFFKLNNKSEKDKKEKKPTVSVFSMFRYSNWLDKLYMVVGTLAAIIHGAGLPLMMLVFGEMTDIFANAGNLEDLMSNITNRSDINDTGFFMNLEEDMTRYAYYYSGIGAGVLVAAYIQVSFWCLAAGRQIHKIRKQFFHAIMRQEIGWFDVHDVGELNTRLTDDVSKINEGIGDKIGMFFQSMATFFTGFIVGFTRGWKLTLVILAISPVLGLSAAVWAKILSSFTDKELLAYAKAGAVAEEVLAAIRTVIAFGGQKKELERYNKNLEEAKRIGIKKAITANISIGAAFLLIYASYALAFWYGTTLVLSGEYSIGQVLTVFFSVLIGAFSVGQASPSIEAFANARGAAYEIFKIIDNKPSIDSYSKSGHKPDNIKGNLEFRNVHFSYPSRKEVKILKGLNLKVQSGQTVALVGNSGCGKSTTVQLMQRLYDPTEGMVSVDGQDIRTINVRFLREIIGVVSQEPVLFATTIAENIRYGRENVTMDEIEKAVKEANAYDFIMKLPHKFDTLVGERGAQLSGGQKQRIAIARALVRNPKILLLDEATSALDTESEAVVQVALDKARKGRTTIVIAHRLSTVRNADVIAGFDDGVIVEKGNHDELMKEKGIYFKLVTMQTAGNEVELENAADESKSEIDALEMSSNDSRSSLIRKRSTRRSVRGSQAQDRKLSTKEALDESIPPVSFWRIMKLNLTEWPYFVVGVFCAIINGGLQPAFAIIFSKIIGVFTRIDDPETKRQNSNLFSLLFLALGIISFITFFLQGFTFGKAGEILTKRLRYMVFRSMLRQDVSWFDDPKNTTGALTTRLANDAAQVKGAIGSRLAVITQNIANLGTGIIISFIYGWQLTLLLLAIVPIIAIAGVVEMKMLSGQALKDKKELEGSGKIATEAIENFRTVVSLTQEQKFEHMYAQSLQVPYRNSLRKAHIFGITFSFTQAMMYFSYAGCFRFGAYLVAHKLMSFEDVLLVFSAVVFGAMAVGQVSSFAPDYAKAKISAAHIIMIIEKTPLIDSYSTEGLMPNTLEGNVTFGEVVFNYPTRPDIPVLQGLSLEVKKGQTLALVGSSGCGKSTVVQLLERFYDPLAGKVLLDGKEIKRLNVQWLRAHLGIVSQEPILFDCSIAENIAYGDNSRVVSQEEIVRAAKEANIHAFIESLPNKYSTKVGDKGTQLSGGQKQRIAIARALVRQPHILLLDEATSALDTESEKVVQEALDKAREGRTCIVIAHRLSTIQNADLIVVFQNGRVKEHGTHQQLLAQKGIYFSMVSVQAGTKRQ
Chain of CYP2D6 (P10635 whole entry): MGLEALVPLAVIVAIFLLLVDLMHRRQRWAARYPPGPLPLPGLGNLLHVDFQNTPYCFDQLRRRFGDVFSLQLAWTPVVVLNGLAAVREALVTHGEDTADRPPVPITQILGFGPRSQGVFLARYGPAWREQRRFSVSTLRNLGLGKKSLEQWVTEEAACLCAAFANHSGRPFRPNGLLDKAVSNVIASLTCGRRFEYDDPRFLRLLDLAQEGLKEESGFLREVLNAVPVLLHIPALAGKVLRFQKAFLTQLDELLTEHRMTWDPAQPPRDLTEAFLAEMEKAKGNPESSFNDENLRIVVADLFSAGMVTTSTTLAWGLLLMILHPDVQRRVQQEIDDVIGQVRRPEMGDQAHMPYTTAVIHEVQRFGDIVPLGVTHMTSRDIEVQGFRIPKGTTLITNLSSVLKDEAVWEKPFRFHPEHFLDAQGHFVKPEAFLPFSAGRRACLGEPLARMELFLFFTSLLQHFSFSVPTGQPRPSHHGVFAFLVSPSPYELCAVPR
Chain of BACE1 (P56817 46-457): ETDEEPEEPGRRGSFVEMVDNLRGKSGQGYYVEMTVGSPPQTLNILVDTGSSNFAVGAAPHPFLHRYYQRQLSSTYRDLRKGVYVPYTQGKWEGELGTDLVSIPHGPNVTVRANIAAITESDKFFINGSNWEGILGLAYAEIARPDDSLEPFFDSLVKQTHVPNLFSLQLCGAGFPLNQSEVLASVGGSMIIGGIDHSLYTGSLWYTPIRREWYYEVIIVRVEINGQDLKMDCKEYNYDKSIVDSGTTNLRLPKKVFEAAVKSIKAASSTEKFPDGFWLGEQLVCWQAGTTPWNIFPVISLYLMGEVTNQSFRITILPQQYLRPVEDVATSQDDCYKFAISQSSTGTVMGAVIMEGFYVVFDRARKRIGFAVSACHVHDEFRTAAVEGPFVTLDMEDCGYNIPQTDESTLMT

SMILES: C[C@H]1C[C@H]2CSC(N)=N[C@@]2(c2nc(NC(=O)c3ccc(OC(F)F)cn3)ccc2F)CO1 [Comparator 2]
- HLM CLint [2]: 22.9 mL/min/kg

SMILES: NC1=N[C@@]2(c3cc(NC(=O)c4ccc(OC(F)F)cn4)ccc3F)COCC[C@H]2CS1 [Comparator 4]
- IC50 [3]: < 1 nM
- HLM CLint [2]: 8.3 mL/m in/kg mL/min/kg
- Pgp liability MDR1 Er [1]: 6.8

SMILES: NC1=N[C@@]2(c3cc(NC(=O)c4ccc(OC(F)F)cn4)ccc3F)CO[C@@H](C(F)(F)F)C[C@H]2CS1 [Comparator 6]
- IC50 [3]: < 1 nM
- BACE2/BACE1 Binding Ratio [4]: 1.0
- Pgp liability MDR1 Er [1]: 3.2

SMILES: C[C@H]1C[C@H]2CSC(N)=N[C@@]2(c2cc(NC(=O)c3ccc(Cl)cn3)ccc2F)CO1 [Comparator 7]
- IC50 [3]: < 1 nM
- BACE2/BACE1 Binding Ratio [4]: 1.0
- HLM CLint [2]: 34.4 mL/min/kg

SMILES: C[C@H]1C[C@H]2CSC(N)=N[C@@]2(c2nc(NC(=O)c3coc(CF)n3)cs2)CO1 [Example 3, N-{2-[(4aR,6S,8aR)-2-amino-6-methyl-4,4a,5,6-tetrahydropyrano[3,4-d][1,3]thiazin-8a(8H)-yl]-1,3-thiazol-4-yl}-2-(fluoromethyl)-1,3-oxazole-4-carboxamide]
- IC50 [8]: 0.7 nM

The next lines start with the values.

- Pgp liability MDR1 Er [1]: 7.1
SMILES: C[C@H]1C[C@H]2CSC(N)=N[C@@]2(c2nc(NC(=O)c3ccc(OC(F)F)cn3)cs2)CO1 [Comparator 1]

- IC50 [5]: < 30 µM
- formation of GSH adducts [6]: not detected
- Observed GSH adducts [6]: Negative
SMILES: C[C@H]1C[C@H]2CSC(N)=N[C@@]2(c2nc(NC(=O)c3ccc(OC(F)F)cn3)cs2)CO1 [Example 1, N-{2-[(4aR,6S,8aR)-2-amino-6-methyl-4,4a,5,6-tetrahydropyrano[3,4-d][1,3]thiazin-8a(8H)-yl]-1,3-thiazol-4-yl}-5-(difluoromethoxy)pyridine-2-carboxamide]

- IC50 [5]: < 30 µM
- formation of GSH adducts [6]: not detected
- Observed GSH adducts [6]: Negative
- efflux ratio [7]: < 2.5
SMILES: C[C@H]1C[C@H]2CSC(N)=N[C@@]2(c2nc(NC(=O)c3cnc(OC(F)F)cn3)cs2)CO1 [Example 2, N-{2-[(4aR,6S,8aR)-2-amino-6-methyl-4,4a,5,6-tetrahydropyrano[3,4-d][1,3]thiazin-8a(8H)-yl]-1,3-thiazol-4-yl}-5-(difluoromethoxy)pyrazine-2-carboxamide]

- IC50 [8]: 0.9 nM
SMILES: C[C@H]1C[C@H]2CSC(N)=N[C@@]2(c2nc(NC(=O)c3ccn(C(F)F)n3)cs2)CO1 [Example 4, N-{2-[(4aR,6S,8aR)-2-amino-6-methyl-4,4a,5,6-tetrahydropyrano[3,4-d][1,3]thiazin-8a(8H)-yl]-1,3-thiazol-4-yl}-1-(difluoromethyl)-1H-pyrazole-3-carboxamide]

- IC50 [5]: < 30 µM
- formation of GSH adducts [6]: not detected
- Observed GSH adducts [6]: Negative
SMILES: C[C@H]1C[C@H]2CSC(N)=N[C@@]2(c2nc(NC(=O)c3ccc(Cl)cn3)cs2)CO1 [Example 7, N-{2-[(4aR,6S,8aR)-2-amino-6-methyl-4,4a,5,6-tetrahydropyrano[3,4-d][1,3]thiazin-8a(8H)-yl]-1,3-thiazol-4-yl}-5-chloropyridine-2-carboxamide]

- IC50 [5]: < 30 µM
- formation of GSH adducts [6]: not detected
- Observed GSH adducts [6]: Negative
SMILES: Cc1cc(OC(F)F)cnc1C(=O)Nc1csc([C@]23CO[C@@H](C)C[C@H]2CSC(N)=N3)n1 [Example 45, N-{2-[(4aR,6S,8aR)-2-amino-6-methyl-4,4a,5,6-tetrahydropyrano[3,4-d][1,3]thiazin-8a(8H)-yl]-1,3-thiazol-4-yl}-5-(difluoromethoxy)-3-methylpyridine-2-carboxamide]
